Reference: paper PMC6576746, “Rational discovery of dual-indication multi-target PDE/Kinase inhibitor for precision anti-cancer therapy using structural systems pharmacology” (PLoS Computational Biology, 2019)

Tests used:
Assay in all cases: biochemical
Set-up in all cases: DiscoverX KinomeScan competition binding assay across human kinases; per cent of control at 10 and 100 uM
RAF1 = RAF1 (Homo sapiens, UniProt P04049); details: competition binding, % of control; read-out: Percent Control (100 uM Levosimendan)
Sequence of RAF1 (P04049 whole entry): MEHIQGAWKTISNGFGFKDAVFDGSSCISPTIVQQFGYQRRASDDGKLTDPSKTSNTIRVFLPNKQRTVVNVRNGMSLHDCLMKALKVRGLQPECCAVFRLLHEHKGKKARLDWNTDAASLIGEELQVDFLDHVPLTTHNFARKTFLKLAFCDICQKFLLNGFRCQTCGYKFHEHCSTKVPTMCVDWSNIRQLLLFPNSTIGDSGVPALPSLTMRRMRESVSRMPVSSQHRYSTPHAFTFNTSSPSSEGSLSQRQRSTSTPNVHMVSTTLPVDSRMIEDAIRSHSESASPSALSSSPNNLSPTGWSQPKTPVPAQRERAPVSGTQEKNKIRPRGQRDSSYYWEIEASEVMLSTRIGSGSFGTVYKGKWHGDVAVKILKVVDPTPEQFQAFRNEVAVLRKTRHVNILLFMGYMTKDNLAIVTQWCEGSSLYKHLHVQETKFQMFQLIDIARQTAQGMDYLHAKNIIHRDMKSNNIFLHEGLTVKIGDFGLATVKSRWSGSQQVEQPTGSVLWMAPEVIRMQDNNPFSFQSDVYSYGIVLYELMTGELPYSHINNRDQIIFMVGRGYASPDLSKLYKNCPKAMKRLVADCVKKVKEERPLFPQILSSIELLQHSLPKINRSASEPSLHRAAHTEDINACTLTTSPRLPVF
How it was run: (§1)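 KinomeScan competition binding was run across a human kinase panel at 10 μM and 100 μM levosimendan. Results are %control = (test − positive control)/(negative control − positive control) × 100.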

ABL2 = ABL2 (Homo sapiens, UniProt P42684); details: competition binding, % of control; read-out: Percent Control (100 uM Levosimendan)
How it was run: as §1

PRKD2 = PRKD2 (Homo sapiens, UniProt Q9BZL6); details: competition binding, % of control; read-out: Percent Control (100 uM Levosimendan)
How it was run: as §1

CDK5 = CDK5 (Homo sapiens, UniProt Q00535); details: competition binding, % of control; read-out: Percent Control (100 uM Levosimendan)
Sequence of CDK5 (Q00535 whole entry): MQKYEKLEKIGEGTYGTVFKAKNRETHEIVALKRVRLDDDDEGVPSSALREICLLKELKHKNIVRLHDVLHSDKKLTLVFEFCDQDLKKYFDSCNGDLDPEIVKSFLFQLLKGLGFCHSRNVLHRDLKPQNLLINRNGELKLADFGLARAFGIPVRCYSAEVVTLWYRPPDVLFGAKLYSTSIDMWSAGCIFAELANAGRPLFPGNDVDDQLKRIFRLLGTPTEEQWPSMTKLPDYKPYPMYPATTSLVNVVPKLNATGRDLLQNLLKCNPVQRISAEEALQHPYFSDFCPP
How it was run: as §1

[1] = target: T1, TYK2(JH1domain-catalytic) (Homo sapiens, UniProt P29597); details: competition binding, % of control
T1 construct: JH1domain-catalytic
T1 sequence (P29597 whole entry): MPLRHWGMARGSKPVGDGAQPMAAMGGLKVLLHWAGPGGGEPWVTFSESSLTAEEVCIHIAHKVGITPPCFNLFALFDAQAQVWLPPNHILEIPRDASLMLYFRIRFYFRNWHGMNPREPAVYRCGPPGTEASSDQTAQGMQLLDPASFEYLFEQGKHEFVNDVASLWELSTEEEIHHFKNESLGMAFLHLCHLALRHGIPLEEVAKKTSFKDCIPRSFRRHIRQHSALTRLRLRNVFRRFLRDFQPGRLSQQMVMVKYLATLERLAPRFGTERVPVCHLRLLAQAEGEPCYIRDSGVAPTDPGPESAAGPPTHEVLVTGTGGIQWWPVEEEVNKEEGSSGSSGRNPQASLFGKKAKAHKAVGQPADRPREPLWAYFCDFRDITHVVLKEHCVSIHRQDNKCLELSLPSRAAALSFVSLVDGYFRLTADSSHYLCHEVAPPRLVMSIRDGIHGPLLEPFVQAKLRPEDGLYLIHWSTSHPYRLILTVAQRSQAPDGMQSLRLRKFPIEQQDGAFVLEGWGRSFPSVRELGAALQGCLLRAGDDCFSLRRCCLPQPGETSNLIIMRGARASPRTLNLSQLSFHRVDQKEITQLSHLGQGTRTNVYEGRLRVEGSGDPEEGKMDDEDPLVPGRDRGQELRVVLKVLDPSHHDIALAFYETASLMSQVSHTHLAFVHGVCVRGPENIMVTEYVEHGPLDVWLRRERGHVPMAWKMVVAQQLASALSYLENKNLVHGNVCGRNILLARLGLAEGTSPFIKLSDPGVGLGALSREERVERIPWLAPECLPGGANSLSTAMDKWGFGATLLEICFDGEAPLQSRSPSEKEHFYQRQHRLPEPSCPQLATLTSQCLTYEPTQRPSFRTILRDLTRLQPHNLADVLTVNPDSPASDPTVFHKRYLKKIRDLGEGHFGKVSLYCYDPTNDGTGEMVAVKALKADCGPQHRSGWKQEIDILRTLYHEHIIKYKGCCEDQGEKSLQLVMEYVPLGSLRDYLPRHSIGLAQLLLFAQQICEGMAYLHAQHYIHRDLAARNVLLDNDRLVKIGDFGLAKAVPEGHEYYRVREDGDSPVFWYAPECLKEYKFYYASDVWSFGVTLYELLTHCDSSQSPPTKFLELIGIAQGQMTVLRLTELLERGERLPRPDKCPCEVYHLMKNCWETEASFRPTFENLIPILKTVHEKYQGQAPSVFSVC
How it was run: as §1

EGFR(G719S) = EGFR(G719S) (Homo sapiens, UniProt P00533, G719S); details: competition binding, % of control
Sequence of EGFR(G719S) (P00533 whole entry G719S): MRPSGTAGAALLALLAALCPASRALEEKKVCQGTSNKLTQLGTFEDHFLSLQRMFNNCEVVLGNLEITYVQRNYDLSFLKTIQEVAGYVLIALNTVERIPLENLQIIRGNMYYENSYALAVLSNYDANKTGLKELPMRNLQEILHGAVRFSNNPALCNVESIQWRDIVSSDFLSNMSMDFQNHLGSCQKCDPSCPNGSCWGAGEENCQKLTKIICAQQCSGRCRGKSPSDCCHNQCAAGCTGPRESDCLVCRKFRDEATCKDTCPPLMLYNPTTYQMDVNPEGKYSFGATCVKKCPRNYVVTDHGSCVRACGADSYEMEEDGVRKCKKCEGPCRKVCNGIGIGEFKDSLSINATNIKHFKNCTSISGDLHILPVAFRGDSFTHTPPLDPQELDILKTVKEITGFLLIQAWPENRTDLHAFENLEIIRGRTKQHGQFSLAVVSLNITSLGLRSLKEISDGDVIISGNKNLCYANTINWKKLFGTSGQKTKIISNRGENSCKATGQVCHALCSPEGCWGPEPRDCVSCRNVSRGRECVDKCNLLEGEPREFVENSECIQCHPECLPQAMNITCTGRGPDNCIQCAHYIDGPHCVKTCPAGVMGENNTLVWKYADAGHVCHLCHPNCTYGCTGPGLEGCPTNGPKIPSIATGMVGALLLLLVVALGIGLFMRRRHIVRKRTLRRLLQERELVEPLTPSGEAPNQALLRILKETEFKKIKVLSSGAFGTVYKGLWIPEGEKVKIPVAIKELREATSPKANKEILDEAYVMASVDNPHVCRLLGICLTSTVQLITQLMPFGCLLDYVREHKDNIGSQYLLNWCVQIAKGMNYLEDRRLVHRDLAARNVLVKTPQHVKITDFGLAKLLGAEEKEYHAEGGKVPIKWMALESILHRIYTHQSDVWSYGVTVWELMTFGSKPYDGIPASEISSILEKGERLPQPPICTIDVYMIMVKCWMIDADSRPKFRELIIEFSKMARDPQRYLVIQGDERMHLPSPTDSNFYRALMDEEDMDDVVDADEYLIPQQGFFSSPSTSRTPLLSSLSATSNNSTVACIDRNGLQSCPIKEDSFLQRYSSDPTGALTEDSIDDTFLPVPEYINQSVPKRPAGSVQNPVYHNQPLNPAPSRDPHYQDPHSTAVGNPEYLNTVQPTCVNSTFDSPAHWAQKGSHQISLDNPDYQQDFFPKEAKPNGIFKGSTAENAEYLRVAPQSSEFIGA
How it was run: as §1

p38-beta = target: T2, p38-beta (Homo sapiens, UniProt Q15759); details: competition binding, % of control; read-out: Percent Control (100 uM Levosimendan)
T2 construct: gene MAPK11
How it was run: as §1

FGFR3(G697C) = FGFR3(G697C) (Homo sapiens, UniProt P22607, G697C); details: competition binding, % of control; read-out: Percent Control (100 uM Levosimendan)
Sequence of FGFR3(G697C) (P22607 whole entry G697C): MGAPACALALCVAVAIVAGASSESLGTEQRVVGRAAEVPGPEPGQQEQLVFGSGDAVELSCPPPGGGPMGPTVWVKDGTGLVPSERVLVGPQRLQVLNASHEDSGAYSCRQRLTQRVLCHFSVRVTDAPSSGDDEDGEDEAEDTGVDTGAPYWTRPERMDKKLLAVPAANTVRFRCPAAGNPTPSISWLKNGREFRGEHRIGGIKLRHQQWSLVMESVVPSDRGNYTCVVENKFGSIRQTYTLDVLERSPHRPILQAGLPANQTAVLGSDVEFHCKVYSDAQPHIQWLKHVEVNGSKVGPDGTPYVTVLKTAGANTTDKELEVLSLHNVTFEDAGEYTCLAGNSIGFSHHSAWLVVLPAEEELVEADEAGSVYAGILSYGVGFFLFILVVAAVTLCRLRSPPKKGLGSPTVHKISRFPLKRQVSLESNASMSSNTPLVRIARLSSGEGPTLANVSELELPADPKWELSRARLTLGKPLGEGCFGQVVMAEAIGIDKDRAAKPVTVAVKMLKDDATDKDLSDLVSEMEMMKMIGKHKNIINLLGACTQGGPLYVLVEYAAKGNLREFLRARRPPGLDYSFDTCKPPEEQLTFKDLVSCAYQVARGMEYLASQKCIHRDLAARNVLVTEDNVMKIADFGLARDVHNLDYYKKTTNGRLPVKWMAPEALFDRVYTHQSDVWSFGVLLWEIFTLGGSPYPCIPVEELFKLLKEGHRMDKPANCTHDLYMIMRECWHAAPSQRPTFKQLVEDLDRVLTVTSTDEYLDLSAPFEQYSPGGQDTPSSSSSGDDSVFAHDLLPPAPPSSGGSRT
How it was run: as §1

PIK3CA(M1043I) = PIK3CA(M1043I) (Homo sapiens, UniProt P42336, M1043I); details: competition binding, % of control; read-out: Percent Control (100 uM Levosimendan)
How it was run: as §1

LRRK2(G2019S) = LRRK2(G2019S) (Homo sapiens, UniProt Q5S007, G2019S); details: competition binding, % of control; read-out: Percent Control (100 uM Levosimendan)
How it was run: as §1

CAMK4 = CAMK4 (Homo sapiens, UniProt Q16566); details: competition binding, % of control; read-out: Percent Control (100 uM Levosimendan)
How it was run: as §1

CDK9 = CDK9 (Homo sapiens, UniProt P50750); details: competition binding, % of control; read-out: Percent Control (100 uM Levosimendan)
Sequence of CDK9 (P50750 whole entry): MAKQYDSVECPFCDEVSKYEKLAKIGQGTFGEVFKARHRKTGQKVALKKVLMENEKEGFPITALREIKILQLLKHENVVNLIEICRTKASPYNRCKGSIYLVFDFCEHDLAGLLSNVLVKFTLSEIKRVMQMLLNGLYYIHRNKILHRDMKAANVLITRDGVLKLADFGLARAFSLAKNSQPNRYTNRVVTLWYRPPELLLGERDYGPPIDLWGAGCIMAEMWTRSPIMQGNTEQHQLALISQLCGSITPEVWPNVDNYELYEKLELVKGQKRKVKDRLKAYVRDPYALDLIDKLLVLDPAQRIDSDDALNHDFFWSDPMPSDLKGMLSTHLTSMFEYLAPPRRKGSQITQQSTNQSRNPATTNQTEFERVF
How it was run: as §1

PCTK3 = target: T3, PCTK3 (Homo sapiens, UniProt Q07002); details: competition binding, % of control; read-out: Percent Control (100 uM Levosimendan)
T3 construct: gene CDK18
T3 sequence (Q07002 whole entry): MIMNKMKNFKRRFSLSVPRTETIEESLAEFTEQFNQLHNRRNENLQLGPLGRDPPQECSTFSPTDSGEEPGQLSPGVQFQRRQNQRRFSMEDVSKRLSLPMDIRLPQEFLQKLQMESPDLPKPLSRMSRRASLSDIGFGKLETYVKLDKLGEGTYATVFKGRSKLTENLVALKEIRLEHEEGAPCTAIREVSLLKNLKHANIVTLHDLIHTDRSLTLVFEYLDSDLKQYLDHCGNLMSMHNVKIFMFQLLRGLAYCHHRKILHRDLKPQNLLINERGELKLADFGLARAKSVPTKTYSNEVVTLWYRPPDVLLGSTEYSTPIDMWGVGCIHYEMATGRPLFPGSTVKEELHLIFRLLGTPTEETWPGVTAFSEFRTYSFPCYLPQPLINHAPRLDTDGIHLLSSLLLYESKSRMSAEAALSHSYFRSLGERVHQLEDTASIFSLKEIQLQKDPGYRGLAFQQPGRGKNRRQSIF
How it was run: as §1

SgK110 = target: T4, SgK110 (Homo sapiens, UniProt P0C264); details: competition binding, % of control; read-out: Percent Control (100 uM Levosimendan)
T4 construct: gene SBK3
How it was run: as §1

AMPK-alpha2 = target: T5, AMPK-alpha2 (Homo sapiens, UniProt P54646); details: competition binding, % of control; read-out: Percent Control (100 uM Levosimendan)
T5 construct: gene PRKAA2
How it was run: as §1

TRKB = target: T6, TRKB (Homo sapiens, UniProt Q16620); details: competition binding, % of control; read-out: Percent Control (100 uM Levosimendan)
T6 construct: gene NTRK2
How it was run: as §1

EIF2AK1 = EIF2AK1 (Homo sapiens, UniProt Q9BQI3); details: competition binding, % of control; read-out: Percent Control (100 uM Levosimendan)
How it was run: as §1

ERK4 = target: T7, ERK4 (Homo sapiens, UniProt P31152); details: competition binding, % of control; read-out: Percent Control (100 uM Levosimendan)
T7 construct: gene MAPK4
How it was run: as §1

MEK3 = target: T8, MEK3 (Homo sapiens, UniProt P46734); details: competition binding, % of control; read-out: Percent Control (100 uM Levosimendan)
T8 construct: gene MAP2K3
How it was run: as §1

[2] = read-out: Percent Control (10 uM Levosimendan)
[3] = read-out: Percent Control (100 uM Levosimendan)

remaining binding at 100 µM (RAF1): 77%
remaining binding at 100 µM (ABL2): 89%
remaining binding at 100 µM (PRKD2): 75%
remaining binding at 100 µM (CDK5): 100%
remaining binding at 10 µM [1, 2]: 85%
remaining binding at 100 µM [1, 3]: 27%
remaining binding at 10 µM (EGFR(G719S); [2]): 79%
remaining binding at 100 µM (EGFR(G719S); [3]): 41%
remaining binding at 100 µM (p38-beta): 94%
remaining binding at 100 µM (FGFR3(G697C)): 80%
remaining binding at 100 µM (PIK3CA(M1043I)): 100%
remaining binding at 100 µM (LRRK2(G2019S)): 100%
remaining binding at 100 µM (CAMK4): 100%
remaining binding at 100 µM (CDK9): 100%
remaining binding at 100 µM (PCTK3): 100%
remaining binding at 100 µM (SgK110): 100%
remaining binding at 100 µM (AMPK-alpha2): 83%
remaining binding at 100 µM (TRKB): 81%
remaining binding at 100 µM (EIF2AK1): 100%
remaining binding at 100 µM (ERK4): 100%
remaining binding at 100 µM (MEK3): 57%
SMILES: C[C@@H]1CC(=O)NN=C1c1ccc(NN=C(C#N)C#N)cc1 [levosimendan]
